Laboratory results from patent US20030199692A1, “Propanoic acid derivatives that inhibit the binding of integrins to their receptors” (priority 1999, published 2003).

molecular target: T1, α4β1 integrin (Homo sapiens, UniProt P05556+P13612); assay: Inhibition of adhesion of calcein AM-labeled Ramos cells to CS1 (fibronectin) peptide-conjugated ovalbumin; assay type: cell-based; conditions: Ramos; Table 2; compound at a concentration of 100 μM; read-out: % A (percent inhibition of cell adhesion)
T1 construct: endogenous in cells; host or cells: Ramos cells
Procedure: The ability of compounds of the present invention to inhibit binding is determined by a procedure in which a 26-amino acid peptide containing the CS1 sequence of fibronectin with an N-terminal Cys ([…]) was coupled to maleimide activated ovalbumin. Bovine serum albumin (BSA) and CS1 conjugated ovalbumin were coated onto 96-well polystyrene plates at 0.5 mg/ml in TBS (50 mM Tris, pH 7.5; 150 mM NaCl) at 4° C. for 16 hours. The plates were washed three times with TBS and blocked with TBS containing 3% BSA at room temperature for 4 hours. Blocked plates were washed three times in binding buffer (TBS; 1 mM MgCl2; 1 mM CaCl2; 1 mM MnCl2) prior to assay. Ramos cells fluorescently labeled with calcein AM were resuspended in binding buffer (10^7 cells/ml) and diluted 1:2 with same buffer with or without compound. The cells were added immediately to the wells (2.5×10^5 cells/well) and incubated for 30 minutes at 37° C. Following three washes with binding buffer, adherent cells were lysed and quantitated using a fluorometer. IC50 is defined as the dose required to give 50% inhibition. MS in Table 3 stands for Mass Spec. nd stands for not determined in the Tables. A stands for inhibition in Table 2, and the percent inhibition indicates the inhibition of cell adhesion when compound is included in the assay at a concentration of 100 μM. The lower the IC50 value and the greater the percentage of inhibition, the more efficient the compound is at prevention of cell adhesion.

T1 sequence (P13612 34-1032): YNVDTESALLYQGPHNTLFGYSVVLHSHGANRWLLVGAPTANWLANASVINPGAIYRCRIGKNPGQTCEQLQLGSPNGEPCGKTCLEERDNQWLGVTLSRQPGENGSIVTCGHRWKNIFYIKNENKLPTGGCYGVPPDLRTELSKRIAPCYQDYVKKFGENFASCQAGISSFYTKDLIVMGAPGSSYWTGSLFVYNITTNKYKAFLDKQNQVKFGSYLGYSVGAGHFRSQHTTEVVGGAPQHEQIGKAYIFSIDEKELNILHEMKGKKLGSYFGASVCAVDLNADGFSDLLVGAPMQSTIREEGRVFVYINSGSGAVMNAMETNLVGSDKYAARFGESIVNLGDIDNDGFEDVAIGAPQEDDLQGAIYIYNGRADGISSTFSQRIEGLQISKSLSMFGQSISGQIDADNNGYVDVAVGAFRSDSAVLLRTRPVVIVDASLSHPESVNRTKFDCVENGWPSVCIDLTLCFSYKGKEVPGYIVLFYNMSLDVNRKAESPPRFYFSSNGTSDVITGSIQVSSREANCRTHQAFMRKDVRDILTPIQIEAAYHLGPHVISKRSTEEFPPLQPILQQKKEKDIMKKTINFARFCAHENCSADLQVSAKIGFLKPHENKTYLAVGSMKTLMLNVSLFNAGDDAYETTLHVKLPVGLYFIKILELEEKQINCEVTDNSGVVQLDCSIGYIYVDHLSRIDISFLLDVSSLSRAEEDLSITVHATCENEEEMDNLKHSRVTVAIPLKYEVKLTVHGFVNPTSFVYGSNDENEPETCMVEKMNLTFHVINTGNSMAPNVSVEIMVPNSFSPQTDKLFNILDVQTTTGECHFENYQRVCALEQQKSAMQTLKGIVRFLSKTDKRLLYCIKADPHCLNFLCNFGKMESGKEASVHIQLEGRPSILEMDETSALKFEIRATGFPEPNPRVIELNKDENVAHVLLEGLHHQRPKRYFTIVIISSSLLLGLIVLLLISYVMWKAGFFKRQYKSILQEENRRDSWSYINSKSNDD
T1 sequence (P05556 21-798): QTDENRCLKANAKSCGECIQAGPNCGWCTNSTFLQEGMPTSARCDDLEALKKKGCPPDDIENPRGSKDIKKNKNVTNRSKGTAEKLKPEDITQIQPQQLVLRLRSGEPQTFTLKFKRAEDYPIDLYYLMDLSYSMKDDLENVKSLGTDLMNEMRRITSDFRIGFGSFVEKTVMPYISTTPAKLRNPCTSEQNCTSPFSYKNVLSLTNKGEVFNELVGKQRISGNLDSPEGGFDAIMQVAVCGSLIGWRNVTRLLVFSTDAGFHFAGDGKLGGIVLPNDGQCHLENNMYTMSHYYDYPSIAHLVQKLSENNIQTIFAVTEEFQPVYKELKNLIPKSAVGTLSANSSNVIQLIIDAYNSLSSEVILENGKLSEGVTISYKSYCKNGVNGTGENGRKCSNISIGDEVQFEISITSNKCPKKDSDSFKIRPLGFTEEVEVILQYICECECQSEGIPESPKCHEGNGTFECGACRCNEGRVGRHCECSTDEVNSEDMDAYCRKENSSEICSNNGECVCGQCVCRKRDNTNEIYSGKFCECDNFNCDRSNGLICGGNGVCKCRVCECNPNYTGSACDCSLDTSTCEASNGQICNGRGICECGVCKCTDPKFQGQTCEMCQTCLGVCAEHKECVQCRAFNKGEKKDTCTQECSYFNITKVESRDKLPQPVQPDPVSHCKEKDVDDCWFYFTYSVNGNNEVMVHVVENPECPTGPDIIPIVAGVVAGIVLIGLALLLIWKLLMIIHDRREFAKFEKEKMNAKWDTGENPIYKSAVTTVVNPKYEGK

Q: How did the inhibition at 100 µM turn out when `CCCC[C@@H](C(=O)N[C@@H](CC(=O)O)c1ccc2c(c1)OCO2)N1CCC(c2cccs2)N(Cc2cccs2)C1=O` (stereo partly drawn) [(3S)-3-(1,3-benzodioxol-5-yl)-3-(((2S)-2-(2-oxo-4-(2-thienyl)-3-(2-thienylmethyl)tetrahydro-1(2H)-pyrimidinyl)hexanoyl)amino)propanoic acid] was run?
A: 100%

same assay, conditions: Table 1; Ramos cell adhesion to CS1-conjugated ovalbumin, 30 minutes at 37° C.

Q: `CCCCC(C(=O)N[C@@H](CC(=O)O)c1ccc2c(c1)OCO2)n1cc(C)cc(Cc2ccccc2)c1=O` (mixture of isomers) [Compound 8, (3S)-3-(1,3-benzodioxol-5-yl)-3-((2R,S)-2-(3-benzyl-5-methyl-2-oxo-1(2H)-pyridinyl)hexanoylamino)propanoic acid] was tested. Which IC50 did it give?
A: 0.007 µM

Q: `CCCC[C@@H](C(=O)N[C@@H](CC(=O)O)c1ccc2c(c1)OCO2)n1cc(C)cc(Cc2ccccc2)c1=O` [Compound 10] was tested. Which IC50 did it give?
A: 0.003 µM

same assay, conditions: Table 2; Ramos cell adhesion to CS1-conjugated ovalbumin, 30 minutes at 37° C.

Q: Which IC50 does the source give for `CCCC[C@@H](C(=O)N[C@@H](CC(=O)O)c1ccc2c(c1)OCO2)N1CCC(c2cccs2)N(Cc2cccs2)C1=O` (stereo partly drawn) [(3S)-3-(1,3-benzodioxol-5-yl)-3-(((2S)-2-(2-oxo-4-(2-thienyl)-3-(2-thienylmethyl)tetrahydro-1(2H)-pyrimidinyl)hexanoyl)amino)propanoic acid] here?
A: 0.05 µM

same assay, conditions: Table 3; Ramos cell adhesion to CS1-conjugated ovalbumin, 30 minutes at 37° C.

Q: For `CCCC[C@@H](C(=O)N[C@@H](CC(=O)O)c1ccc2c(c1)OCO2)N1CC(=O)N(Cc2cccs2)[C@@H](Cc2ccccc2)C1=O` [(3S)-3-(1,3-benzodioxol-5-yl)-3-({(2S)-2-[(3S)-2,5-dioxo-3-(phenylmethyl)-4-(2-thiophenylmethyl)tetrahydro-1(2H)-pyrazinyl]hexanoyl}amino)propanoic acid], which IC50 is on record?
A: 6 µM

Q: How did the IC50 turn out when `CCCCC(C(=O)N[C@@H](CC(=O)O)c1ccc2c(c1)OCO2)n1ccn(Cc2ccccc2)c1=O` (stereo partly drawn) [(3S)-3-(1,3-benzodioxol-5-yl)-3-({2-[2-oxo-3-(phenylmethyl)-2,3-dihydro-1H-imidazol-1-yl]hexanoyl}amino)propanoic acid] was run?
A: 0.06 µM

Q: How did the IC50 turn out when `CCCCC(C(=O)N[C@@H](CC(=O)O)c1ccc2c(c1)OCO2)N1C(=O)N(Cc2ccccc2)Cc2ccccc21` (stereo partly drawn) [(3S)-3-(1,3-benzodioxol-5-yl)-3-({2-[2-oxo-3-(phenylmethyl)-3,4-dihydro-1(2H)-quinazolinyl]hexanoyl}amino)propanoic acid] was run?
A: 0.4 µM

Q: How did the IC50 turn out when `CCCC[C@@H](C(=O)N[C@@H](CC(=O)O)c1ccc2c(c1)OCO2)n1cccc(C(=O)c2ccccc2)c1=O` [(3S)-3-(1,3-benzodioxol-5-yl)-3-({(2S)-2-[2-oxo-3-(phenylcarbonyl)-1(2H)-pyridinyl]hexanoyl}amino)propanoic acid] was run?
A: 0.55 µM

Q: How did the IC50 turn out when `CCCCC(C(=O)N[C@@H](CC(=O)O)c1ccc2c(c1)OCO2)n1c(=O)c(Cc2ccccc2)cc2ccccc21` (stereo partly drawn) [(3S)-3-(1,3-benzodioxol-5-yl)-3-({2-[2-oxo-3-(phenylmethyl)-1(2H)-quinolinyl]hexanoyl}amino)propanoic acid] was run?
A: 2 µM

Q: Which IC50 does the source give for `CCCCC(C(=O)N[C@@H](CC(=O)O)c1ccc2c(c1)OCO2)n1nc(C)cc(Cc2ccccc2)c1=O` (stereo partly drawn) [(3S)-3-(1,3-benzodioxol-5-yl)-3-({2-[3-methyl-6-oxo-5-(phenylmethyl)-1(6H)-pyridazinyl]hexanoyl}amino)propanoic acid] here?
A: 0.06 µM

same assay, conditions: Table 4; Ramos cell adhesion to CS1-conjugated ovalbumin, 30 minutes at 37° C.

Q: For `CCCCC(C(=O)N[C@@H](CC(=O)O)c1cccc(OC(C)C)c1)n1cc(C)cc(Cc2cccc(Cl)c2Cl)c1=O` (stereo partly drawn) [(3S)-3-({2-[3-[(2,3-dichlorophenyl)methyl]-5-methyl-2-oxo-1(2H)-pyridinyl]hexanoyl}amino)-3-{3-[(1-methylethyl)oxy]phenyl}propanoic acid], which IC50 is on record?
A: 0.068 µM

Q: `CCCCC(C(=O)N[C@@H](CC(=O)O)c1ccc2c(c1)CCC2)n1cc(C)cc(Cc2ccc3ccccc3c2)c1=O` (stereo partly drawn) [(3S)-3-(2,3-dihydro-1H-inden-5-yl)-3-({2-[5-methyl-3-(2-naphthalenylmethyl)-2-oxo-1(2H)-pyridinyl]hexanoyl}amino)propanoic acid] was tested. Which IC50 did it give?
A: 0.283 µM

Q: With `CCCCC(C(=O)N[C@@H](CC(=O)O)c1ccc(Cl)c(OC(C)C)c1)n1cc(C)cc(Cc2ccccc2)c1=O` (stereo partly drawn) [(3S)-3-{[2-(3-benzyl-5-methyl-2-oxopyridin-1(2H)-yl)hexanoyl]amino}-3-(4-chloro-3-isopropoxyphenyl)propanoic acid] as the compound, how does the IC50 read?
A: 0.025 µM

Q: For `CCCCC(C(=O)N[C@@H](CC(=O)O)c1ccc(C)c(OC(C)C)c1)n1cc(C)cc(Cc2ccccc2)c1=O` (stereo partly drawn) [(3S)-3-{4-methyl-3-[(1-methylethyl)oxy]phenyl}-3-({2-[5-methyl-2-oxo-3-(phenylmethyl)-1(2H)-pyridinyl]hexanoyl}amino)propanoic acid], which IC50 is on record?
A: 0.015 µM

Q: Which IC50 does the source give for `CCCCC(C(=O)N[C@@H](CC(=O)O)c1ccc(C)c(C)c1)n1cc(C)cc(Cc2ccccc2)c1=O` (stereo partly drawn) [(3S)-3-{[2-(3-benzyl-5-methyl-2-oxopyridin-1(2H)-yl)hexanoyl]amino}-3-(3,4-dimethylphenyl)propanoic acid] here?
A: 0.13 µM

Q: For `CCCCC(C(=O)N[C@@H](CC(=O)O)c1cccc(OC(C)C)c1)n1cc(C)cc(Cc2ccc3ccccc3c2)c1=O` (stereo partly drawn) [(3S)-3-{3-[(1-methylethyl)oxy]phenyl}-3-({2-[5-methyl-3-(2-naphthalenylmethyl)-2-oxo-1(2H)-pyridinyl]hexanoyl}amino)propanoic acid], which IC50 is on record?
A: 0.02 µM

Q: With `CCCCC(C(=O)N[C@@H](CC(=O)O)c1cc(C)c(OC)cc1C)n1cc(C)cc(Cc2ccccc2)c1=O` (stereo partly drawn) [(3S)-3-{[2-(3-benzyl-5-methyl-2-oxopyridin-1(2H)-yl)hexanoyl]amino}-3-(4-methoxy-2,5-dimethylphenyl)propanoic acid] as the compound, how does the IC50 read?
A: 0.283 µM

Q: `CCCCC(C(=O)N[C@@H](CC(=O)O)c1ccccc1)n1cc(C)cc(Cc2ccc3ccccc3c2)c1=O` (stereo partly drawn) [(3S)-3-({2-[5-methyl-3-(2-naphthalenylmethyl)-2-oxo-1(2H)-pyridinyl]hexanoyl}amino)-3-phenylpropanoic acid] was tested. Which IC50 did it give?
A: 0.03 µM

Q: `CCCCC(C(=O)N[C@@H](CC(=O)O)c1ccc(-c2ccc(OC)cc2)cc1)n1cc(C)cc(Cc2ccccc2)c1=O` (stereo partly drawn) [(3S)-3-{[2-(3-benzyl-5-methyl-2-oxopyridin-1(2H)-yl)hexanoyl]amino}-3-(4′-methoxy-1,1′-biphenyl-4-yl)propanoic acid] was tested. Which IC50 did it give?
A: 0.3 µM

Q: How did the IC50 turn out when `CCCCC(C(=O)N[C@@H](CC(=O)O)c1cc(OC)c(OC)c(OC)c1)n1cc(C)cc(Cc2ccccc2)c1=O` (stereo partly drawn) [(3S)-3-{]2-(3-benzyl-5-methyl-2-oxopyridin-1(2H)-yl)hexanoyl]amino}-3-(3,4,5-trimethoxyphenyl)propanoic acid] was run?
A: 0.033 µM

Q: How did the IC50 turn out when `CCCCC(C(=O)N[C@@H](CC(=O)O)c1cccc(OCCC)c1)n1cc(C)cc(Cc2cccc(Cl)c2)c1=O` (stereo partly drawn) [(3S)-3-({2-[3-(3-chlorobenzyl)-5-methyl-2-oxopyridin-1(2H)-yl]hexanoyl}amino)-3-(3-propoxyphenyl)propanoic acid] was run?
A: 0.023 µM

Q: How did the IC50 turn out when `CCCCC(C(=O)N[C@@H](CC(=O)O)c1cccc(OCCC)c1)n1cc(C)cc(Cc2ccccc2)c1=O` (stereo partly drawn) [(3S)-3-{[2-(3-benzyl-5-methyl-2-oxopyridin-1(2H)-yl)hexanoyl]amino}-3-(3-propoxyphenyl)propanoic acid] was run?
A: 0.01 µM

Q: `CCCCC(C(=O)N[C@@H](CC(=O)O)c1cccc(OC(C)C)c1)n1cc(C)cc(Cc2c(Cl)cc(Cl)cc2OC)c1=O` (stereo partly drawn) [(3S)-3-({2-[3-{[2,4-dichloro-6-(methyloxy)phenyl]methyl}-5-methyl-2-oxo-1(2H)-pyridinyl]hexanoyl}amino)-3-{3-[(1-methylethyl)oxy]phenyl}propanoic acid] was tested. Which IC50 did it give?
A: 0.275 µM

Q: With `CCCCC(C(=O)N[C@@H](CC(=O)O)c1cccc(OC(C)C)c1)n1cc(C)cc(Cc2cccc3ccccc23)c1=O` (stereo partly drawn) [(3S)-3-{3-[(1-methylethyl)oxy]phenyl}-3-({2-[5-methyl-3-(1-naphthalenylmethyl)-2-oxo-1(2H)-pyridinyl]hexanoyl}amino)propanoic acid] as the compound, how does the IC50 read?
A: 0.067 µM
